# Source: PMC9715707, “Identification of a novel peptide ligand for the cancer-specific receptor mutation EGFRvIII using high-throughput sequencing of phage-selected peptides” (Scientific Reports, 2022)
# “Also recorded” adds a separate entry of the source. Where no end group is shown, it is not given here. The star is where a group is joined. FITC = O=C1OC2(c3ccc(O)cc3Oc3cc(O)ccc32)c2ccc(NC(=S)*)cc21; Ahx = NCCCCCC(=O)O
# B1: FITC-Ahx-FALGEA-CONH2 (peptide)
# peptide: {FITC-Ahx}-FALGEA-NH2
# SMILES: CC(C)C[C@H](NC(=O)[C@H](C)NC(=O)[C@H](Cc1ccccc1)NC(=O)CCCCCNC(=S)Nc1ccc2c(c1)C(=O)OC21c2ccc(O)cc2Oc2cc(O)ccc21)C(=O)NCC(=O)N[C@@H](CCC(=O)O)C(=O)N[C@@H](C)C(N)=O
# How the values were obtained:
# [1] = system: CLTH/EGFRvIII cells; assay: Flow cytometry binding of phage-displayed peptides, EGFRvIII cells; format: cell-based, human; conditions: phage-displayed peptide (M13), ~10^10 phages pre-absorbed on 293T cells, 1 h at 4 °C; anti-M13_biotin + anti-biotin_PE vs secondary-only
# Procedure: (§1) Prior to being tested with the selected phages or peptides, each cell line was incubated with different commercial antibodies to confirm their phenotype (Fig. S3). A monoclonal anti-EGFR WT antibody (Life Technologies) and an anti-EGFRvIII primary antibody (Millipore) were used in flow cytometry experiments to evaluate the expression of EGFR WT and EGFRvIII receptors on CLTH/EGFR WT cells and CLTH/EGFRvIII cells respectively. Anti-IgG1 conjugated to phycoerythrin (PE) (Miltenyi Biotec) was used as a secondary antibody to read the fluorescence of PE. 293T cells were tested as a negative control. A phage-free control experiment was also performed on each cell type prior to testing phages. Anti-M13 conjugated to biotin (Abcam) was used as a primary antibody, anti-mouse IgG3 kappa monoclonal conjugated to biotin (Abcam) as isotype control and anti-biotin conjugated to PE (Miltenyi Biotec) as secondary antibody. A list of the antibodies is available in Table S3.
# Binding of the selected phages on 293T human embryo kidney, CLTH/EGFR WT and CLTH/EGFRvIII cells was characterized by flow cytometry. Approximately 1 × 10^6 293T cells (expressing endogenous levels of EGFR WT) were collected, washed with cold PBS and blocked with 2%w/v milk-PBS (MPBS), rotating for 30 min at 4 °C. […] The blocked phages were then added to the blocked cells and incubated rotating for 1 h at 4 °C. After centrifugation at 500g for 3 min, the supernatant containing non-bound phages was collected. This step allowed the removal of phages that interacted with this EGFR negative cell line (i.e. not an EGFR-specific binding). The supernatant was then used to resuspend transfected cells washed beforehand (CLTH/EGFR WT expressing EGFR WT and CLTH/EGFRvIII expressing EGFRvIII). Treated cells were incubated for 1 h at 4 °C, collected by centrifugation and washed two times with PBS at pH 7.4. Cells were stained with Viobility™ 405/520 fixable dye (Miltenyi Biotec) as a viability marker. Cells were analyzed by flow cytometry on a MACSQuant Analyser 16 (Miltenyi Biotec) using the MACS Quantify software to acquire and process the data. Viobility™ 405/520 fixable dye was excited at 405 nm and fluorescence was collected with the 525/50 nm filter. PE was excited at 488 nm and fluorescence was collected with the 579/34 nm filter. Viable cells were gated, and PE fluorescence intensity was recorded.
# [2] = system: CLTH/EGFR WT cells; assay: Flow cytometry binding of phage-displayed peptides, EGFR WT cells; format: cell-based, human; conditions: phage-displayed peptide (M13), 1 h at 4 °C
# Procedure: as §1, with “Anti-M13 conjugated to biotin (Abcam) was used as a primary antibody, anti-mouse IgG3 kappa monoclonal conjugated to biotin (Abcam) as isotype control and anti-biotin conjugated to PE (Miltenyi Biotec) as secondary antibody. A list of the antibodies is available in Table S3.” left out
# (§2) Binding of the selected phages on 293T human embryo kidney, CLTH/EGFR WT and CLTH/EGFRvIII cells was characterized by flow cytometry. […] Cells were analyzed by flow cytometry on a MACSQuant Analyser 16 (Miltenyi Biotec) using the MACS Quantify software to acquire and process the data. Viobility™ 405/520 fixable dye was excited at 405 nm and fluorescence was collected with the 525/50 nm filter. PE was excited at 488 nm and fluorescence was collected with the 579/34 nm filter. Viable cells were gated, and PE fluorescence intensity was recorded.
# [3] = system: 293T cells; assay: Flow cytometry binding of phage-displayed peptides, 293T cells; format: cell-based, human; conditions: phage-displayed peptide (M13), 1 h at 4 °C
# Procedure: as §1, with “Anti-M13 conjugated to biotin (Abcam) was used as a primary antibody, anti-mouse IgG3 kappa monoclonal conjugated to biotin (Abcam) as isotype control and anti-biotin conjugated to PE (Miltenyi Biotec) as secondary antibody. A list of the antibodies is available in Table S3.” left out
# as §2
# [4] = system: CLTH/EGFRvIII cells; assay: Flow cytometry cellular binding of FITC-Ahx-peptides, EGFRvIII cells; format: cell-based, human; conditions: for Normalized MFI at 10 µM, vIII: EGFRvIII cells, 10 µM FITC-Ahx-peptide, 0.2% DMSO, MFI minus blank cells divided by spectrofluorometer correction factor; for Normalized MFI ratio vIII/WT from 3 different concentrations, Mean: EGFRvIII over EGFR WT cell line, mean of ratios at 1, 5 and 10 µM
# From the text: Since FITC fluorescence can be impacted by the nature of the amino acids in the peptide sequence and since the conjugation rate of FITC in the peptide synthesis can fluctuate, it was needed to measure a correction factor according to the fluorescence intensity of each peptide. As flow cytometry cannot analyze fluorescence of small molecules, a spectrofluorometer was used in similar conditions (excitation and emission) to the flow cytometry conditions. […] Fluorescence intensities at 525 nm of the FITC-Ahx-peptides in PBS were measured using a Varioskan plate reader (Thermo Scientific) and the SkanIt Software 5.0. Samples with concentrations between at 0.625, 1.25, 2.5, 5, 10 and 20 µM were prepared in triplicates using stock solutions of peptides in DMSO at 5 mM. Samples (100 µL) were analyzed in a 96-well plate using the following conditions: temperature of 25 °C, excitation wavelength at 490 nm, excitation bandwidth of 5 nm, emission wavelength at 525 nm, by step of 1 nm, measurement time 100 ms, and upper lens. Linear regressions were determined for each peptide. The correction factor was determined by dividing each slope by the arbitrary value 100 and was used to normalize the MFI obtained by flow cytometry.
# [5] = system: CLTH/EGFR WT cells; assay: Flow cytometry cellular binding of FITC-Ahx-peptides, EGFR WT cells; format: cell-based, human; conditions: 10 µM FITC-Ahx-peptide, 20 min at RT, 0.2% DMSO, MFI minus blank cells divided by spectrofluorometer correction factor
# Procedure: (§3) Flow cytometry analysis was also performed to quantitatively analyze the binding affinity of the synthetized peptides to the different cell types. Briefly, 293T, CLTH/EGFR WT and CLTH/EGFRvIII cells (100,000 cells, 500 µL) were plated in 24-well plates and incubated overnight at 37 °C in a humidified atmosphere containing 5% CO2 overnight. The next day, cells were treated with FITC-Ahx-peptides using a stock solution in pure DMSO at 5 mM to reach a final concentration of 1, 5 or 10 µM (final percentage of DMSO of 0.2%). Plates were incubated for 20 min at RT. Cells were detached from the plates by a PBS wash, transferred to FACS tubes and washed two times with 4 mL of PBS. Cells were stained with LIVE/DEAD™ Fixable Near-IR Dead Cell Stain Kit (Thermofisher) as a viability marker. Cells were analyzed by flow cytometry on a MACSQuant Analyser 16 (Miltenyi Biotec) using the MACS Quantify software to acquire and process the data. LIVE/DEAD™ Fixable dye was excited at 640 nm and fluorescence was collected with the 785/62 nm filter. FITC was excited at 488 nm and fluorescence was collected with the 525/50 nm filter. Viable cells were gated, FITC fluorescence intensity was recorded and the mean fluorescence intensity (MFI) was measured. MFI values were then normalized by subtracting MFI from blank cells and dividing by the correction factor determined using a spectrofluorometer.
# Since FITC fluorescence can be impacted by the nature of the amino acids in the peptide sequence and since the conjugation rate of FITC in the peptide synthesis can fluctuate, it was needed to measure a correction factor according to the fluorescence intensity of each peptide. As flow cytometry cannot analyze fluorescence of small molecules, a spectrofluorometer was used in similar conditions (excitation and emission) to the flow cytometry conditions. […] Fluorescence intensities at 525 nm of the FITC-Ahx-peptides in PBS were measured using a Varioskan plate reader (Thermo Scientific) and the SkanIt Software 5.0. […] Linear regressions were determined for each peptide. […]
# [6] = system: 293T cells; assay: Flow cytometry cellular binding of FITC-Ahx-peptides, 293T cells; format: cell-based, human; conditions: 20 min at RT; for Normalized MFI at 10 µM, 293T: 293T cells (negative control), 10 µM FITC-Ahx-peptide, 0.2% DMSO, MFI minus blank cells divided by spectrofluorometer correction factor
# Procedure: as §3
# Since FITC fluorescence can be impacted by the nature of the amino acids in the peptide sequence and since the conjugation rate of FITC in the peptide synthesis can fluctuate, it was needed to measure a correction factor according to the fluorescence intensity of each peptide. As flow cytometry cannot analyze fluorescence of small molecules, a spectrofluorometer was used in similar conditions (excitation and emission) to the flow cytometry conditions. Experiments were performed by the flow cytometry core facility at Institut Mondor de Recherche Biomédical (IMRB U955, France). Fluorescence intensities at 525 nm of the FITC-Ahx-peptides in PBS were measured using a Varioskan plate reader (Thermo Scientific) and the SkanIt Software 5.0. Samples with concentrations between at 0.625, 1.25, 2.5, 5, 10 and 20 µM were prepared in triplicates using stock solutions of peptides in DMSO at 5 mM. Samples (100 µL) were analyzed in a 96-well plate using the following conditions: temperature of 25 °C, excitation wavelength at 490 nm, excitation bandwidth of 5 nm, emission wavelength at 525 nm, by step of 1 nm, measurement time 100 ms, and upper lens. Linear regressions were determined for each peptide. The correction factor was determined by dividing each slope by the arbitrary value 100 and was used to normalize the MFI obtained by flow cytometry.
# [7] = target: T1, EGFRvIII (Homo sapiens, UniProt P00533, DELINS30-297G); assay: Microscale thermophoresis, EGFRvIII in solution; format: binding; conditions: read-out: Kd for EGFRvIII (MST, estimated)
# T1 construct: using purified and active extracellular domain of the EGFRvIII protein; purchased Sino Biological 29662-H08B
# [8] = system: EGFR WT; conditions: prior art; cited from earlier work
# From the text: Two short peptides intended for EGFR targeting of tumor cells have been described in the prior art.
# [9] = target: epidermal growth factor tyrosine kinase receptor mutation variant III (EGFRvIII) on CLTH/EGFRvIII cells (human) (UniProt P00533); assay: flow cytometry on cells; FITC-Ahx-peptides at 1, 5 or 10 µM (0.2% DMSO) on plated 293T, CLTH/EGFR WT and CLTH/EGFRvIII cells, 20 min at RT; FITC MFI of viable cells, normalised by blank cells and a spectrofluorometer correction factor
molecule,measurement,setting,value
VLGREEWSTSYW-M13,specific binding of phage-displayed peptide to EGFRvIII cells (PE fluorescence),[1],showed a specific binding to EGFRvIII
same,"difference in fluorescence intensity, anti-M13 vs secondary-only antibody, EGFR WT cells",[2],no significant difference in these fluorescence intensities
same,"difference in fluorescence intensity, anti-M13 vs secondary-only antibody, 293T cells",[3],no significant difference in these fluorescence intensities
{FITC-Ahx}-YHWYGYTPENVI-NH2 (SMILES CC[C@H](C)[C@H](NC(=O)[C@@H](NC(=O)[C@H](CC(N)=O)NC(=O)[C@H](CCC(=O)O)NC(=O)[C@@H]1CCCN1C(=O)[C@@H](NC(=O)[C@H](Cc1ccc(O)cc1)NC(=O)CNC(=O)[C@H](Cc1ccc(O)cc1)NC(=O)[C@H](Cc1c[nH]c2ccccc12)NC(=O)[C@H](Cc1c[nH]cn1)NC(=O)[C@H](Cc1ccc(O)cc1)NC(=O)CCCCCNC(=S)Nc1ccc2c(c1)C(=O)OC21c2ccc(O)cc2Oc2cc(O)ccc21)[C@@H](C)O)C(C)C)C(N)=O) [reference compound],"Normalized MFI at 10 µM, vIII",[4]; 20 min at RT,9.7
same,"Normalized MFI ratio vIII/WT from 3 different concentrations, Mean",[4],1.80
same,"Normalized MFI at 10 µM, WT",[5],4.5
same,"Normalized MFI at 10 µM, 293T",[6],7.6
NPIVRSAEDGQL [top peptide selected from the NGS data analysis],specific binding of phage-displayed peptide to EGFRvIII cells (PE fluorescence),[1],did not show a specific binding
VLGREEWSTSYW [novel 12-mer peptide ligand of EGFRvIII selected by phage display],specific binding of phage-displayed peptide to EGFRvIII cells (PE fluorescence),[1],appeared to show specific binding to the EGFRvIII cells compared to the EGFR WT and the parental cell
same,"cellular binding to EGFRvIII cells, qualitative","[4]; FITC-Ahx-peptide, 20 min at RT, flow cytometry",A shift of fluorescence was observed for the VLGREEWSTSYW peptide on EGFRvIII compared to 293T and EGFR WT cell lines; also recorded: much higher for VLGREEWSTSYW compared to the FALGEA control; also recorded: binds to EGFRvIII cells with high efficiency; also recorded: greater affinity in cell surface binding experiments; also recorded: weaker signal with the free C-terminal FITC labeled peptide compared to the phage displayed format of the same peptide
same,"specificity for EGFRvIII cells versus EGFR WT cells, qualitative","[4]; FITC-Ahx-peptide, flow cytometry, MFI ratio vIII/WT at 1, 5, 10 µM",shows the specificity to EGFRvIII versus EGFR WT for VLGREEWSTSYW compared to the control peptide YHWYGYTPENVI; also recorded: good specificity compared to EGFR WT cells; also recorded: better selectivity to EGFRvIII cells than to EGFR WT cells compared to FALGEA
same,"non-specific interactions (293T cell binding), qualitative","[6]; FITC-Ahx-peptide, flow cytometry",minimized for VLGREEWSTSYW compared to the YHWYGYTPENVI control; also recorded: less nonspecific interaction (293T cells); also recorded: significantly less nonspecific cellular binding
NESGITRIALQD [top peptide selected from the NGS data analysis],specific binding of phage-displayed peptide to EGFRvIII cells (PE fluorescence),[1],did not show a specific binding
FALGEA-NH2 [FALGEA],Kd,[7],3.7 µM
"{FITC-Ahx}-FALGEA-NH2 (SMILES CC(C)C[C@H](NC(=O)[C@H](C)NC(=O)[C@H](Cc1ccccc1)NC(=O)CCCCCNC(=S)Nc1ccc2c(c1)C(=O)OC21c2ccc(O)cc2Oc2cc(O)ccc21)C(=O)NCC(=O)N[C@@H](CCC(=O)O)C(=O)N[C@@H](C)C(N)=O) [FALGEA control peptide with FITC-Ahx tag at the N-terminus, reference compound]","Normalized MFI at 10 µM, vIII",[4]; 20 min at RT,1.8
same,"Normalized MFI ratio vIII/WT from 3 different concentrations, Mean",[4],2.50
same,"Normalized MFI at 10 µM, WT",[5],0.7
same,"Normalized MFI at 10 µM, 293T",[6],0.9
FITC-Ahx-VLGREEWSTSYW-CONH2,"Normalized MFI at 10 µM, WT",[5],4.0
same,"Normalized MFI at 10 µM, 293T",[6],5.1
YHWYGYTPENVI,"reported binding to EGFR WT, qualitative (YHWYGYTPENVI)",[8],proven to bind to EGFR WT
B1,normalized MFI at 10 µM,[9],1.8
same,normalized MFI ratio vIII/WT from 3 different concentrations (mean),[9],2.5
